The numbers were not newly measured in paper PMC12580772, “A First-in-Human Study of ATM Inhibitor Lartesertib as Monotherapy in Patients with Advanced Solid Tumors” (Clinical Cancer Research, 2025), which cites them from elsewhere.

The subject of the data set is patient-derived xenograft models of triple-negative breast cancer. Set-up: method as in PMID 37079339. The settings on record: single-agent gartisertib; cited from earlier work.

On to `Nc1nn2cc(F)cnc2c1C(=O)Nc1cncc(F)c1N1CCC(C(=O)N2CCN(C3COC3)CC2)CC1` [gartisertib, reference compound], for which the Tumor control rate is 27%.
